Assay results as given in PMC7914897, “Cytotoxic Potential of a-Azepano- and 3-Amino-3,4-SeCo-Triterpenoids” (International Journal of Molecular Sciences, 2021).
Read-outs that look alike come from different tables or passages of the source.

Key:
[1] = test system: A2780 (ovarian carcinoma); assay: SRB cytotoxicity assay, 72 h; type: cell-based, human; settings: A2780, 72 h, cut-off 30 µM
Procedure, shortened: (§1)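 Seed, 24 h; compound 0–30 µM serial dilutions, 72 h (DMSO ≤0.5%); fix 10% TCA, 4 °C; stain 0.4% SRB ~20 min; 1% AcOH wash; solubilise 10 mM Tris; A570. EC50 vs untreated.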

[2] = test system: A375 (malignant melanoma); assay: SRB cytotoxicity assay, 72 h; type: cell-based, human; settings: A375, 72 h, cut-off 30 µM
Procedure, shortened: as §1

[3] = test system: FaDu (hypopharyngeal carcinoma); assay: SRB cytotoxicity assay, 72 h; type: cell-based, human; settings: cut-off 30 µM
Procedure, shortened: as §1

[4] = test system: HT29 (colorectal carcinoma); assay: SRB cytotoxicity assay, 72 h; type: cell-based, human; settings: HT29, 72 h, cut-off 30 µM
Procedure, shortened: as §1

MCF-7 (breast carcinoma) = assay: SRB cytotoxicity assay, 72 h; type: cell-based, human; settings: MCF-7, 72 h, cut-off 30 µM
Procedure, shortened: as §1

[5] = test system: NIH 3T3 (non-malignant mouse fibroblasts); assay: SRB cytotoxicity assay, 72 h; type: cell-based; settings: NIH 3T3, 72 h, cut-off 30 µM
Procedure, shortened: as §1

CNS cancer subpanel = assay: NCI-60 screen, subpanel; settings: Homo sapiens
Ovarian Cancer subpanel = assay: NCI-60 screen, subpanel; settings: Homo sapiens
[6] = test system: A549/ATCC (NSC lung cancer); assay: NCI-60 screen (SRB, 48 h); settings: Homo sapiens
[7] = test system: NCI-H23 (NSC lung cancer); assay: NCI-60 screen (SRB, 48 h); settings: Homo sapiens
[8] = test system: NCI-H322M (NSC lung cancer); assay: NCI-60 screen (SRB, 48 h); settings: Homo sapiens
SW-620 (Colon cancer) = assay: NCI-60 screen (SRB, 48 h); settings: Homo sapiens
SF-268 (CNS cancer) = assay: NCI-60 screen (SRB, 48 h); settings: Homo sapiens
SF-539 (CNS cancer) = assay: NCI-60 screen (SRB, 48 h); settings: Homo sapiens
M14 (Melanoma) = assay: NCI-60 screen (SRB, 48 h)
UACC-62 (Melanoma) = assay: NCI-60 screen (SRB, 48 h); settings: Homo sapiens
OVCAR-8 (Ovarian cancer) = assay: NCI-60 screen (SRB, 48 h); settings: Homo sapiens
ACHN (Renal cancer) = assay: NCI-60 screen (SRB, 48 h); settings: Homo sapiens
CAKI-1 (Renal cancer) = assay: NCI-60 screen (SRB, 48 h); settings: Homo sapiens
SN12C (Renal cancer) = assay: NCI-60 screen (SRB, 48 h); settings: Homo sapiens
TK-10 (Renal cancer) = assay: NCI-60 screen (SRB, 48 h); settings: Homo sapiens
PC-3 (Prostate cancer) = assay: NCI-60 screen (SRB, 48 h); settings: Homo sapiens
HS 578T (Breast cancer) = assay: NCI-60 screen (SRB, 48 h); settings: Homo sapiens
[9] = test system: panel of approximately 60 cancer cell lines; assay: NCI-60 screen (SRB, 48 h), full panel

Compound: CC1(C)CC[C@]2(CO)CC[C@]3(C)C(=CC[C@@H]4[C@@]5(C)CCCNC(C)(C)[C@@H]5CC[C@]43C)[C@@H]2C1 [Compound 3, azepanoerythrodiol]
- EC50 [1]: n.s.
- EC50 [2]: n.s.
- EC50 [3]: n.s.
- EC50 [4]: n.s.
- EC50 (MCF-7 (breast carcinoma)): n.s.
- EC50 [5]: n.s.
- IC (TGI) (CNS cancer subpanel; 48 h, read-out: TGI MG_MID): 4.13 µM
- GI50 (CNS cancer subpanel; read-out: GI50 MG_MID): 6.53 µM
- CC50 (CNS cancer subpanel; read-out: LC50 MG_MID): 40 µM
- IC (TGI) (Ovarian Cancer subpanel; 48 h, read-out: TGI MG_MID): 19.1 µM
- GI50 (Ovarian Cancer subpanel; read-out: GI50 MG_MID): 7.75 µM
- CC50 (Ovarian Cancer subpanel; read-out: LC50 MG_MID): 45.6 µM
- GI50 ([6]; A549): 4.62 µM
- IC (TGI) ([6]; A549, 48 h, read-out: TGI): 17.8 µM
- CC50 ([6]; A549, read-out: LC50): 52.4 µM
- GI50 ([7]; NCI-H23): 1110 nM
- IC (TGI) ([7]; NCI-H23, 48 h, read-out: TGI): 24.6 µM
- CC50 ([7]; NCI-H23, read-out: LC50): 54.5 µM
- GI50 [8]: 3.69 µM
- IC (TGI) ([8]; 48 h, read-out: TGI): 10.3 µM
- CC50 ([8]; read-out: LC50): 36 µM
- GI50 (SW-620 (Colon cancer); SW-620): 1910 nM
- IC (TGI) (SW-620 (Colon cancer); SW-620, 48 h, read-out: TGI): 4 µM
- CC50 (SW-620 (Colon cancer); SW-620, read-out: LC50): 8.35 µM
- GI50 (SF-268 (CNS cancer); SF-268): 2900 nM
- IC (TGI) (SF-268 (CNS cancer); SF-268, 48 h, read-out: TGI): 9.77 µM
- CC50 (SF-268 (CNS cancer); SF-268, read-out: LC50): 65.6 µM
- GI50 (SF-539 (CNS cancer); SF-539): 11 µM
- IC (TGI) (SF-539 (CNS cancer); SF-539, 48 h, read-out: TGI): 2.41 µM
- CC50 (SF-539 (CNS cancer); SF-539, read-out: LC50): 52.7 µM
- GI50 (M14 (Melanoma); Homo sapiens, M14): 2040 nM
- IC (TGI) (M14 (Melanoma); Homo sapiens, M14, 48 h, read-out: TGI): 3.87 µM
- CC50 (M14 (Melanoma); Homo sapiens, M14, read-out: LC50): 7.34 µM
- Growth % of the Most Sensitive Cell Lines (M14 (Melanoma); M14, 1 dose 10 µM): −82.21%
- GI50 (UACC-62 (Melanoma); UACC-62): 1920 nM
- IC (TGI) (UACC-62 (Melanoma); UACC-62, 48 h, read-out: TGI): 3.93 µM
- CC50 (UACC-62 (Melanoma); UACC-62, read-out: LC50): 8.07 µM
- GI50 (OVCAR-8 (Ovarian cancer); OVCAR-8): 3.83 µM
- IC (TGI) (OVCAR-8 (Ovarian cancer); OVCAR-8, 48 h, read-out: TGI): 15.6 µM
- CC50 (OVCAR-8 (Ovarian cancer); OVCAR-8, read-out: LC50): 54.1 µM
- GI50 (ACHN (Renal cancer)): 3.44 µM
- IC (TGI) (ACHN (Renal cancer); 48 h, read-out: TGI): 11.5 µM
- CC50 (ACHN (Renal cancer); read-out: LC50): 38.3 µM
- GI50 (CAKI-1 (Renal cancer); CAKI-1): 3.05 µM
- IC (TGI) (CAKI-1 (Renal cancer); CAKI-1, 48 h, read-out: TGI): 13.7 µM
- CC50 (CAKI-1 (Renal cancer); CAKI-1, read-out: LC50): 53.6 µM
- GI50 (SN12C (Renal cancer)): 4.02 µM
- IC (TGI) (SN12C (Renal cancer); 48 h, read-out: TGI): 16.8 µM
- CC50 (SN12C (Renal cancer); read-out: LC50): 45.6 µM
- GI50 (TK-10 (Renal cancer); TK-10): 4.64 µM
- IC (TGI) (TK-10 (Renal cancer); TK-10, 48 h, read-out: TGI): 16.7 µM
- CC50 (TK-10 (Renal cancer); TK-10, read-out: LC50): 49.9 µM
- GI50 (PC-3 (Prostate cancer); PC-3): 1480 nM
- IC (TGI) (PC-3 (Prostate cancer); PC-3, 48 h, read-out: TGI): 3.33 µM
- CC50 (PC-3 (Prostate cancer); PC-3, read-out: LC50): 7.47 µM
- GI50 (HS 578T (Breast cancer)): 6.16 µM
- IC (TGI) (HS 578T (Breast cancer); 48 h, read-out: TGI): 24.7 µM
- CC50 (HS 578T (Breast cancer); read-out: LC50): 77.4 µM
- Positive Cytostatic Effect (cell lines with percent growth 0 to 50 / total) ([9]; 1 dose 10 µM): 20/57
- Positive Cytotoxic Effect (cell lines with percent growth < 0 / total) ([9]; 1 dose 10 µM): 19/57
- number of cancer cell lines the compound was active against ([9]; 1 dose 10 µM): 30 cell lines
- activity at 10 µM ([9]; Homo sapiens, 48 h, read-out: Mean Growth, %): 18.9%
- activity at 10 µM ([9]; Homo sapiens, 48 h, read-out: Range of Growth, %): -88.4 to 89.3%
- IC (TGI) ([9]; Homo sapiens, 48 h, read-out: TGI MG_MID60, average over all cell lines): 15.5 µM
- GI50 ([9]; Homo sapiens, read-out: GI50 MG_MID60): 3.83 µM
- GI50 ([9]; Homo sapiens, read-out: GI50 against all human tumor cell lines): < 10 µM
- GI50 ([9]; Homo sapiens, read-out: GI50 against the most sensitive cell lines): 0.2 to 0.94 µM
- CC50 ([9]; Homo sapiens, read-out: LC50 MG_MID60, average over all cell lines): 32 µM
- selectivity indexes at TGI level (subpanels) ([9]; MG_MID60/subpanel MG_MID): 3.59–4.69
